From patent publication US12534496B2, “Polymorphic forms of Cyclo (-His-Pro) and methods of use to treat kidney disease” (NovMetaPharma Co., Ltd., priority 2018, dated 2026)
Entries after “also recorded” stand apart in the source; their conditions may differ. Like-named read-outs stand apart in the source and are kept apart here.

Columns and labels:
Format in all cases: physicochemical
[1] = Variable temperature and humidity XRPD (VT-/VH-XRPD)
Description: VT-/VH-XRPD analysis was carried out on a Philips X'Pert ProMultipurpose diffractometer equipped with a temperature and humidity chamber. The samples were scanned between 4 and 35.99° 2θ using Cu K radiation (α1λ=1.54060 Å; α2=1.54443 Å; β=1.39225 Å; α1:α2 ratio=0.5) running in Bragg-Brentano geometry (step size 0.008° 2θ) using 40 kV/40 mA generator settings. Measurements were performed at each step of the humidity profile below:
Program: 40% RH/ambient temperature—initial scan
• 0% RH/ambient temperature—initial scan, 1-hour hold, scan • 0% RH/80° C.—initial scan, 20-minute hold, scan • 0% RH/80° C.—initial scan, 80-minute hold, scan 11. High Performance Liquid Chromatography-Ultraviolet Detection (HPLC-UV) Instrument: Dionex Ultimate 3000 Column: LC/168 X-Bridge Phenyl Column (150 mm×4.6 mm×3.5 μm) Column Temperature: 30° C. Autosampler Temperature: 5° C. UV wavelength: 220 nm Injection Volume: 5 μL Flow Rate: 1 ml/min Mobile Phase A: 10 mM Ammonium acetate Mobile Phase B: Acetonitrile Diluent: 0.1% TFA in water Gradient program: […]

[2] = 1-week stability assessment (40 °C/75% RH, 80 °C, ambient light; XRPD, HPLC purity)
Description: XRPD analysis was carried out on a sample of 5 g of CHP Hydrate. The sample was weighed in a glass vial, and 6 mL of a 90:10 ethanol/water mixture was added to make a slurry. The mixture was then agitated for approximately 24 hours at ambient temperature and then analyzed by XRPD. […] XPRD analysis was carried out to assess any change in the form of the material.

[3] = pH solubility assessment in buffers at 37 °C; conditions: for μL for Dissolution at 37° C.: 100 mg solid
Description: CHP patterns 1 and 2 were prepared for pH solubility assessment as follows: • 100 mg of CHP pattern 1 and pattern 2 were each weighed out into 4, 5 mL screw top glass vials; • 100 μL of a selected buffer, pre-heated to 37° C., was added to each vial; • Samples were heated to 37° C. in an incubator shaker for ca. 10 minutes after each volume of buffer and checked for sample dissolution.

[4] = Drug substance stability study, 25±2 °C/60±5% RH (appearance, assay, impurities, chiral, water content, XRPD); conditions: 25° C./60% RH (table title)
Description: Packaging: Sample at each individual time point was packaged into double Antistatic LDPE bags both secured with cable ties. The sample packed for the same storage condition were stored together within a fiber drum, and closed with metal lid. All packages were prepared in the same fashion and labeled.
Time zero will be the day samples are placed on station. Initial testing results were from the release testing as long as samples are put on station within 30 days of the release test date, otherwise, initial was repeated.
Study Requirements: Total 22.5 g sample (Total 21 g sample if initial test is not needed): • 1.5 g for initial test if needed; • 21 g sample will be divided into 14 parts, 1.5 g for each parts, sample for each part should be weighed into double Antistatic LDPE bags both secured with cable ties. The stability samples for each storage condition are stored together within a fiber drum, closed with metal lid, and then stored at 25±2° C./60+5% RH (9 bags) and 40±2° C./75±5% RH (5 bags), respectively. Sampling Time:
Samples stored not more than 6 months were pulled on schedule date or within 2 business days after the scheduled date. Samples stored more than 6 months were pulled within +2 business days of the scheduled date.
Stability samples stored for one month to one year, and greater than one year were analyzed and completed within 10 and 20 business days after the samples pulled out from stability chamber, respectively. If time zero testing was performed, it was analyzed within 10 business days after study initiation.

[5] = Solution state chemical stability in water/acetone and EtOH/water/MtBE (HPLC purity); conditions: water/acetone and EtOH/H2O/MtBE, 50 °C for 20 h
Description: Solution state chemical stability of the compound was studied in different solvent systems at different temperatures (Table 4). The solution was held at 50° C. and 80° C., and purity of the solution was tracked. The compound was generally stable for at least 20 hours.

[6] = 1-week stability assessment (40 °C/75% RH, 80 °C, ambient light; XRPD, HPLC purity); remark: listed apart in the source
[7] = Solubility of CHP hydrate (Pattern 2) in water/acetone

SMILES: O=C1N[C@@H](Cc2cnc[nH]2)C(=O)N2CCC[C@@H]12 [Pattern 2, Pyrrolo [1,2-a]pyrazine-1,4-dione, hexahydro-3-(1H-imidazol-5-ylmethyl)-, hydrate (1:1), (3S, 8aS)-]
- VT/VH-XRPD Identity ([1]; Run 1: 40% RH, ambient temperature): stable; also recorded: Pattern 2 was present
- VT/VH-XRPD Identity ([1]; Run 1: 40% RH, ambient temperature, listed as CHP Pattern 2): Pattern 2
- VT/VH-XRPD Identity ([1]; Run 2: 0% RH, ambient temperature, 1-hour hold): remains as Pattern 2; also recorded: Pattern 2 remained
- VT/VH-XRPD Identity ([1]; Run 2: 0% RH, ambient temperature, 1-hour hold, listed as CHP Pattern 2): Pattern 2
- VT/VH-XRPD Identity ([1]; Run 2: 0% RH, ambient temperature, 1-hour hold, listed as CHP pattern 2): Pattern 2 input material remained
- VT/VH-XRPD Identity ([1]; Run 3: 0% RH, 80 °C, 20-minute hold): converted Pattern 2 to Pattern 1; also recorded: pure Pattern 1
- VT/VH-XRPD Identity ([1]; Run 3: 0% RH, 80 °C, 20-minute hold, listed as CHP Pattern 2): Pattern 1
- VT/VH-XRPD Identity ([1]; Run 3: 0% RH, 80 °C, 20-minute hold, listed as CHP pattern 2): changed form which was assigned as pure pattern 1
- VT/VH-XRPD Identity ([1]; Run 4: 0% RH, 80 °C, 80-minute hold): pure Pattern 1 remained
- VT/VH-XRPD Identity ([1]; Run 4: 0% RH, 80 °C, 80-minute hold, listed as CHP Pattern 2): Pattern 1
- VT/VH-XRPD Identity ([1]; Run 4: 0% RH, 80 °C, 80-minute hold, listed as CHP pattern 2): Pure pattern 1 remained
- XRPD form after storage ([2]; 7 days at 40 °C/75% RH): No change in form
- XRPD form after storage ([2]; 7 days at 40 °C/75% RH, listed as pattern 2): remain as pattern 2
- XRPD form after storage ([2]; 7 days at 40 °C/75% RH, listed as pattern 2 CHP): remained as pattern 2
- XRPD form after storage ([2]; 7 days at 80 °C): convert to pattern 1
- XRPD form after storage ([2]; 7 days at 80 °C, listed as pattern 2): dehydration from pattern 2 to pattern 1
- XRPD form after storage ([2]; 7 days at 80 °C, listed as pattern 2 CHP): converted to pattern 1
- XRPD form after storage ([2]; 7 days in ambient light): No change in form
- XRPD form after storage ([2]; 7 days in ambient light, listed as pattern 2): remain as pattern 2
- XRPD form after storage ([2]; 7 days in ambient light, listed as pattern 2 CHP): remained as pattern 2
- μL for Dissolution at 37° C. ([3]; buffer pH 1): 300 µL
- μL for Dissolution at 37° C. ([3]; buffer pH 4): 300 µL
- μL for Dissolution at 37° C. ([3]; buffer pH 6.8): 300 µL
- μL for Dissolution at 37° C. ([3]; buffer pH 7.2): 300 µL
- solubility at 10 min ([3]; aqueous buffer, thermodynamic from solid, buffer pH 7.2, 37 °C, read-out: Approximate Solubility): 333 to 500 mg/mL
- solubility at 10 min ([3]; buffer pH 1, 37 °C, pH 1, thermodynamic from solid, read-out: Approximate Solubility): 333 to 500 mg/mL
- solubility at 10 min ([3]; buffer pH 4, 37 °C, pH 4, aqueous buffer, thermodynamic from solid, read-out: Approximate Solubility): 333 to 500 mg/mL
- solubility at 10 min ([3]; buffer pH 6.8, 37 °C, pH 6.8, aqueous buffer, thermodynamic from solid, read-out: Approximate Solubility): 333 to 500 mg/mL
- solubility at 10 min ([3]; buffer, aqueous buffer, thermodynamic from solid, all pH values tested (pH 1, 4, 6.8 and 7.2), 37 °C, read-out: Solubility (estimated)): 333 to 500 mg/mL
- Appearance ([4]; 3M): Off-white powder
- Assay by HPLC ([4]; 3M): 103.3%
- Chiral, HPLC: chiral purity ([4]; 3M): 100.0%
- Impurities, HPLC: H-His-OH ([4]; 3M): 0.08%
- Impurities, HPLC: each other individual (unspecified) impurity ([4]; 3M): individual <0.05%
- Water content (KF) ([4]; 3M): 7.1%
- Appearance ([4]; 6M): Off-white powder
- Assay by HPLC ([4]; 6M): 103.4%
- Chiral, HPLC: chiral purity ([4]; 6M): 100.0%
- Impurities, HPLC: H-His-OH ([4]; 6M): 0.08%
- Impurities, HPLC: each other individual (unspecified) impurity ([4]; 6M): individual <0.05%
- Water content (KF) ([4]; 6M): 7.2%
- Appearance ([4]; Initial): Off-white powder
- Assay by HPLC ([4]; Initial): 103.4%
- Chiral, HPLC: chiral purity ([4]; Initial): 100.0%
- Impurities, HPLC: H-His-OH ([4]; Initial): 0.07%
- Impurities, HPLC: each other individual (unspecified) impurity ([4]; Initial): individual <0.05%
- Water content (KF) ([4]; Initial): 7.4%
- XRPD ([4]; Initial, vs reference standard of Pattern 2 (PS03027-15-H)): Conform to reference
- Chemical stability under both crystallization conditions [5]: stable
- Purity after 1 week ([6]; HPLC, 40 °C/75% RH): 99.5%
- Purity after 1 week ([6]; HPLC, 80 °C): 99.4%
- Purity after 1 week ([6]; HPLC, Ambient): 99.5%
- Purity of starting material ([6]; HPLC, before storage): 99.5%
- Change in HPLC purity after 7 days ([6]; all conditions (40 °C/75% RH, 80 °C, ambient light)): no drop in purity; also recorded: No change in purity
- solubility ([7]; water/acetone 0/10 (v/v), 50 °C, organic solvent or mixture): 14 mg/mL
- solubility ([7]; water/acetone 0.5/9.5 (v/v), 50 °C, organic solvent or mixture): 49 mg/mL
- solubility ([7]; water/acetone 1/9 (v/v), 5 °C, organic solvent or mixture): 48 mg/mL
- solubility ([7]; water/acetone 1/9 (v/v), 50 °C, organic solvent or mixture): 159 mg/mL
- solubility ([7]; water/acetone 2/8 (v/v), 5 °C, organic solvent or mixture): 110 mg/mL
- solubility ([7]; water/acetone 4/6 (v/v), 5 °C, organic solvent or mixture): 179 mg/mL
- solubility ([7]; water/acetone 6/4 (v/v), 5 °C, aqueous with cosolvent or surfactant or cyclodextrin): 206 mg/mL
- solubility ([7]; water/acetone 8/2 (v/v), 5 °C, aqueous with cosolvent or surfactant or cyclodextrin): > 200 mg/mL
- solubility ([7]; water/acetone 9/1 (v/v), 5 °C, aqueous with cosolvent or surfactant or cyclodextrin): 215 mg/mL
- solubility ([7]; water/acetone, 5 °C, organic solvent or mixture, water/acetone 0/10 (v/v)): 17 mg/mL
- solubility ([7]; water/acetone, 5 °C, organic solvent or mixture, water/acetone 0.5/9.5 (v/v)): 19 mg/mL
- solubility ([7]; water/acetone, 50 °C, aqueous with cosolvent or surfactant or cyclodextrin, water/acetone 6/4 (v/v)): > 200 mg/mL
- solubility ([7]; water/acetone, 50 °C, aqueous with cosolvent or surfactant or cyclodextrin, water/acetone 8/2 (v/v)): > 200 mg/mL
- solubility ([7]; water/acetone, 50 °C, aqueous with cosolvent or surfactant or cyclodextrin, water/acetone 9/1 (v/v)): > 200 mg/mL
- solubility ([7]; water/acetone, 50 °C, organic solvent or mixture, water/acetone 2/8 (v/v)): > 200 mg/mL
- solubility ([7]; water/acetone, 50 °C, organic solvent or mixture, water/acetone 4/6 (v/v)): > 200 mg/mL
